Article PMC3334918, “Mutagenesis and Functional Studies with Succinate Dehydrogenase Inhibitors in the Wheat Pathogen Mycosphaerella graminicola” (PLoS ONE, 2012)
Several values for one entry are separate records, joined by “and”; a condition that tells them apart may be missing. Equal values may be shown once.

What was measured:
[1] = system: SDH B_H267N (strain Cbx96); assay: in vitro succinate: Q0/DCPIP activity test, purified mitochondria; assay type: biochemical, Mycosphaerella graminicola; details: ratio IC50mutant/IC50WT, single determination
Protocol: (§1) To explore the sensitivity profiles conferred by amino acid substitutions at the cellular and mitochondrial level, we determined sensitivity towards 4 different compounds for 26 of the identified substitution types both in vivo using liquid culture growth (AE media) and in vitro using purified mitochondria and the succinate: Q0/DCPIP activity test (Table 3). […] Resistance factors (RF) were determined as the ratio IC50mutant/IC50WT. […] Qp site mutations are well known to influence SDH enzyme activity and stability upon catalysis, [13], [38], [41].
(§2) Strains were grown in 1 liter TSM40 units. Cultures were inoculated at 0.05 OD600 nm and grown on a reciprocal shaker (110 rpm, 22°C) for 5 days. Cells were harvested by vacuum filtration and disrupted in liquid nitrogen using a mortar and pestle. Resultant powder was re-suspended to 10% w/v in mitochondrial extraction buffer (10 mM KHPO4 pH7.2; 10 mM KCl, 10 mM MgCl2, 0.5 M sucrose, 0.2 mM EDTA, 2 mM PMSF). Extract was clarified by centrifugation (5,000 g, 4°C for 10 minutes, 2 times), intact mitochondria were then pelleted at 10,000 g for 20 minutes at 4°C. […] This volume was transferred to conical 1.5 ml tubes and re-centrifuged, 10,000 g for 10 minutes at 4°C. […] Mitochondrial suspensions were brought to a final concentration of 10 mg ml^−1 in extraction buffer and stored at −80°C until used.
(§3) Mitochondrial suspensions were incubated at 30°C for 30 minutes in extraction buffer supplemented with 10 mM succinate prior to enzymatic measurements.
(§4) A reaction plate was equilibrated for 10 minutes at 30°C before starting the reaction. DCPIP reduction was conducted at 30°C and monitored at 595 nm using a HTS7000 microtiterplate reader (Perkin Elmer). For calculations a molecular extinction coefficient of ε = 17 mM^−1 cm^−1 was used.
(§5) Inhibitor concentrations ranged between 1 mM and 0.95 nM with uniform 4× dilution factor steps (11 inhibitor concentrations+DMSO control). 96 wells plates were pre equilibrated at reaction temperature (30°C) for 10 minutes before the reactions were started by the addition of 5 µl preactivated M. graminicola mitochondrial suspension. Calculated absorbance slopes (OD/hour) were used for IC50 calculations using Graphpad Prism 5.0 software non linear curve fitting against log inhibitor concentrations.

[2] = system: SDH B_I269V (strain Cbx1); assay: as above; assay type: biochemical, Mycosphaerella graminicola; details: ratio IC50mutant/IC50WT, single determination
Protocol: as §1, §2, §3, §4, §5

[3] = system: SDH B_S218F (strain Flu41); assay: as above; assay type: biochemical, Mycosphaerella graminicola; details: ratio IC50mutant/IC50WT, single determination
Protocol: as §1, §2, §3, §4, §5

[4] = system: SDH B_H267L (strain Cbx29); assay: as above; assay type: biochemical, Mycosphaerella graminicola; details: ratio IC50mutant/IC50WT, single determination
Protocol: as §1, §2, §3, §4, §5

[5] = system: SDH B_R265P (strain Cbx56); assay: as above; assay type: biochemical, Mycosphaerella graminicola; details: ratio IC50mutant/IC50WT, single determination
Protocol: as §1, §2, §3, §4, §5

[6] = system: SDH D_D129S (strain Cbx101); assay: as above; assay type: biochemical, Mycosphaerella graminicola; details: ratio IC50mutant/IC50WT, single determination
Protocol: as §1, §2, §3, §4, §5

[7] = system: SDH B_N271K (strain Flu33); assay: as above; assay type: biochemical, Mycosphaerella graminicola; details: ratio IC50mutant/IC50WT, single determination
Protocol: as §1, §2, §3, §4, §5

SDH C_N86K (strain Izm7) = assay: as above; assay type: biochemical, Mycosphaerella graminicola; details: ratio IC50mutant/IC50WT, single determination
Protocol: as §1, §2, §3, §4, §5

[8] = system: SDH C_L85P (strain Cbx12); assay: as above; assay type: biochemical, Mycosphaerella graminicola; details: ratio IC50mutant/IC50WT, single determination
Protocol: as §1, §2, §3, §4, §5

SDH C_V88D (strain Ol50) = assay: as above; assay type: biochemical, Mycosphaerella graminicola; details: ratio IC50mutant/IC50WT, single determination
Protocol: as §1, §2, §3, §4, §5

[9] = system: SDH D_D129E (strain Cbx22); assay: as above; assay type: biochemical, Mycosphaerella graminicola; details: ratio IC50mutant/IC50WT, single determination
Protocol: as §1, §2, §3, §4, §5

[10] = system: SDH D_D129T (strain Flu29); assay: as above; assay type: biochemical, Mycosphaerella graminicola; details: ratio IC50mutant/IC50WT, single determination, FR** (full resistance) = no sufficient inhibition detected at highest inhibitor concentration tested
Protocol: as §1, §2, §3, §4, §5

SDH C_S83G (strain Flu1) = assay: as above; assay type: biochemical, Mycosphaerella graminicola; details: ratio IC50mutant/IC50WT, single determination
Protocol: as §1, §2, §3, §4, §5

[11] = system: SDH C_T79I (strain Bos64); assay: as above; assay type: biochemical, Mycosphaerella graminicola; details: ratio IC50mutant/IC50WT, single determination
Protocol: as §1, §2, §3, §4, §5

SDH C_A84V (strain Flu4) = assay: as above; assay type: biochemical, Mycosphaerella graminicola; details: ratio IC50mutant/IC50WT, single determination
Protocol: as §1, §2, §3, §4, §5

[12] = system: SDH B_H267Q (strain Bos59); assay: as above; assay type: biochemical, Mycosphaerella graminicola; details: ratio IC50mutant/IC50WT, single determination
Protocol: as §1, §2, §3, §4, §5

[13] = system: SDH B_P220T (strain Flu110); assay: as above; assay type: biochemical, Mycosphaerella graminicola; details: ratio IC50mutant/IC50WT, single determination
Protocol: as §1, §2, §3, §4, §5

[14] = system: SDH C_H152R (strain Izm1); assay: as above; assay type: biochemical, Mycosphaerella graminicola; details: ratio IC50mutant/IC50WT, single determination
Protocol: as §1, §2, §3, §4, §5

[15] = system: SDH B_N225I (strain Flu7); assay: as above; assay type: biochemical, Mycosphaerella graminicola; details: ratio IC50mutant/IC50WT, single determination
Protocol: as §1, §2, §3, §4, §5

[16] = system: SDH B_H267Y (strain Cbx28); assay: as above; assay type: biochemical, Mycosphaerella graminicola; details: ratio IC50mutant/IC50WT, single determination
Protocol: as §1, §2, §3, §4, §5

[17] = system: SDH D_D129G (strain Cbx67); assay: as above; assay type: biochemical, Mycosphaerella graminicola; details: ratio IC50mutant/IC50WT, single determination
Protocol: as §1, §2, §3, §4, §5

[18] = system: SDH C_A84I (strain Flu21); assay: as above; assay type: biochemical, Mycosphaerella graminicola; details: ratio IC50mutant/IC50WT, single determination
Protocol: as §1, §2, §3, §4, §5

[19] = system: SDH B_N225H (strain Cbx106); assay: as above; assay type: biochemical, Mycosphaerella graminicola; details: ratio IC50mutant/IC50WT, single determination
Protocol: as §1, §2, §3, §4, §5

[20] = system: SDH B_P220L (strain Flu75); assay: as above; assay type: biochemical, Mycosphaerella graminicola; details: ratio IC50mutant/IC50WT, single determination
Protocol: as §1, §2, §3, §4, §5

[21] = system: M. graminicola isolate IPO323; assay: UV mutagenesis and selection of resistant colonies on carboxamide amended AE agar; assay type: cell-based, Mycosphaerella graminicola
Protocol: Selection plates were produced after adding 1% of a 100× DMSO solution of the active ingredients to pre-melted AE-agar.
Cells were harvested from 4 days old V8 agar plates and conidial cells were suspended in liquid AE. 10^7 cells were spread onto carboxamide amended AE agar plates and mutagenized using UV Stratalinker 2400 (Stratagene) with 75 mJ cm^−2 or 50 mJ cm^−2. […] Selection plates were incubated in the dark at 20°C for 14 days. Visible colonies were picked from the primary selection plate and re-grown on fresh selection media for 2 additional weeks under the same conditions.

CC(C)C1C2CCC1c1c(NC(=O)c3cn(C)nc3C(F)F)cccc12 (stereo not shown) [Isopyrazam]
Resistance Factors (RFs) in vitro [1]: 11.1
Resistance Factors (RFs) in vitro [2]: 3.6
Resistance Factors (RFs) in vitro [3]: 18.2
Resistance Factors (RFs) in vitro [4]: 3248.5
Resistance Factors (RFs) in vitro [5]: 88.3
Resistance Factors (RFs) in vitro [6]: 82.5
Resistance Factors (RFs) in vitro [7]: 89.5
Resistance Factors (RFs) in vitro (SDH C_N86K (strain Izm7)): 849.9
Resistance Factors (RFs) in vitro [8]: 35.3
Resistance Factors (RFs) in vitro (SDH C_V88D (strain Ol50)): 140.4
Resistance Factors (RFs) in vitro [9]: 145.3
Resistance Factors (RFs) in vitro [10]: 4095 and 4095.5
Resistance Factors (RFs) in vitro (SDH C_S83G (strain Flu1)): 38.6
Resistance Factors (RFs) in vitro [11]: 56.4
Resistance Factors (RFs) in vitro (SDH C_A84V (strain Flu4)): 3.1
Resistance Factors (RFs) in vitro [12]: 34.6
Resistance Factors (RFs) in vitro [13]: 1.8
Resistance Factors (RFs) in vitro [14]: 95.0
Resistance Factors (RFs) in vitro [15]: 7.0
Resistance Factors (RFs) in vitro [16]: 142.6
Resistance Factors (RFs) in vitro [17]: 583.2
Resistance Factors (RFs) in vitro [18]: 8.1
Resistance Factors (RFs) in vitro [19]: 15.7
Resistance Factors (RFs) in vitro [20]: 1.2
Frequency (of resistance development) ([21]; selection at 5× MSC, UV treatment 50 mJ cm^−2): 1.4E-07
Frequency (of resistance development) ([21]; selection at 5× MSC, UV treatment 75 mJ cm^−2): 1.7E-07
Frequency (of resistance development) ([21]; selection at MSC, UV treatment 50 mJ cm^−2): 3.2E-07
Frequency (of resistance development) ([21]; selection at MSC, UV treatment 75 mJ cm^−2): 4.1E-07
